Positions count from the first letter of the chain named.
How the values were obtained:
wild-type PXR LBD = target: T1, wild-type PXR LBD (Homo sapiens, UniProt O75469); assay: Mammalian two-hybrid assay, wt-PXR LBD with SRC-1-VP16 in HepG2; assay type: cell-based; details: MI891 at 10 μM
T1 construct: HepG2 cells were cotransfected with a GAL4-hPXR LBD construct and pSCR1-VP16 construct; expressed in transfected cells; host or cells: HepG2
T1 sequence (O75469 146-433 limits assumed): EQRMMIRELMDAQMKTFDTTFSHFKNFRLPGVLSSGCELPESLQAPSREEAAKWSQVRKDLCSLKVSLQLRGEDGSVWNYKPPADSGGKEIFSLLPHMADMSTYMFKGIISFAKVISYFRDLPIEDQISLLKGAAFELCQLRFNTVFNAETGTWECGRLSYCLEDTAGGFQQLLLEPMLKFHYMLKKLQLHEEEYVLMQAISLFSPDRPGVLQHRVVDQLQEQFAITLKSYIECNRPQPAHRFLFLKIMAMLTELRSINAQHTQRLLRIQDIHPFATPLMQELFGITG
Source text: (§1) Additionally, the GAL4-PXR-LBD triple mutants (S247W/C284W/S208W) construct and wild-type GAL4-wtPXR vector were used for PXR LBD mutant functional two-hybrid assay as we described before. In the mammalian two-hybrid assay, HepG2 cells were cotransfected with a GAL4-hPXR LBD construct and pSCR1-VP16 construct. Renilla luciferase vector was used for the normalization of firefly luciferase activity to Renilla luciferase activity.

[1] = target: T2, triple mutant (S208W/S247W/C284W) PXR LBD (Homo sapiens, UniProt O75469, C284W/S208W/S247W); assay: Mammalian two-hybrid assay, obstructed triple mutant PXR LBD with SRC-1-VP16 in HepG2; assay type: cell-based
T2 construct: the GAL4-PXR-LBD triple mutants (S247W/C284W/S208W) construct; expressed in transfected cells; host or cells: HepG2
T2 sequence (O75469 146-433 S208W/S247W/C284W limits assumed): T1 sequence (O75469 146-433 limits assumed) with S63W, S102W, C139W
Source text: as §1

HepG2 cells = assay: CellTiter-Glo cytotoxicity assay, HepG2; assay type: cell-based, human; details: 24 h
Procedure: (§2) For the cytotoxicity assays involving HepG2, COS-1, and HK-2 cell lines, serial dilutions of MI891 or MI1013 were added to white 96-well tissue culture-treated plates containing these cell lines. After incubating the plates for 24 h at 37 °C, cytotoxicity was assessed using the CellTiter-Glo luminescent cell viability assay (Promega). The luminescence signal was measured with a Synergy2 plate reader (BioTek, Winooski, Vermont, USA) and presented as a relative change compared to the vehicle (DMSO, 0.1%) control, which was set at 100%.

COS-1 cells = assay: CellTiter-Glo cytotoxicity assay, COS-1; assay type: cell-based, monkey; details: 24 h
Procedure: as §2

HK-2 cells = assay: CellTiter-Glo cytotoxicity assay, HK-2; assay type: cell-based, human; details: 24 h
Procedure: as §2

HepaRG cells = assay: RT-qPCR gene expression in differentiated HepaRG cells; assay type: cell-based, human; details: 48 h
Procedure: HepaRG cells (Sigma-Aldrich/Merck) were cultivated and differentiated on 12-well plates. Seeded at 26,600 cells/cm^2, they were maintained in William’s medium with supplements. After 14 days, differentiation into hepatocyte-like cells was induced using 1.5% DMSO for another 14 days.
RT-qPCR was utilized to investigate gene expression in HepaRG and PHH. Total RNA was extracted from these cells using the phenol–chloroform method. The concentration of the isolated RNA was then measured using a Nanodrop 1000 spectro-photometer (Thermo Fisher Scientific).
Following RNA isolation, reverse transcription was performed to convert RNA into complementary DNA (cDNA). This step was carried out using the High-capacity cDNA reverse transcription kit (Cat. No. 4374966, ThermoFisher Scientific). The resulting cDNA served as the template for subsequent qPCR reactions.
The qPCR reactions were conducted on the QuantStudio 6 Flex Real-Time PCR System (ThermoFisher Scientific, Waltham, Mas-sachusetts). For these reactions, TaqMan Universal master mix II (Cat. No. 4440047, ThermoFisher Scientific) and TaqMan assays (FAM) utilized in this study are detailed in the Supporting Information. To quantify gene expression, the cycle threshold (Ct) values of the target genes were normalized to the Ct values of reference genes HPRT1 or GAPDH (HepaRG) or TBP (PHH). The normalized values were then expressed as fold changes (2−ΔΔCt) relative to the DMSO control at the specified time points, with the control set as 1.

[2] = target: T3, farnesoid X receptor (FXR) (Homo sapiens, UniProt Q96RI1); assay: FXR luciferase reporter assay, agonistic and antagonistic setups; assay type: cell-based; details: prototype ligand 6-OCA
T3 construct: the full-length expression vector was paired with pFXRE-luc luciferase construct; expressed in transfected cells
T3 sequence (Q96RI1 whole entry): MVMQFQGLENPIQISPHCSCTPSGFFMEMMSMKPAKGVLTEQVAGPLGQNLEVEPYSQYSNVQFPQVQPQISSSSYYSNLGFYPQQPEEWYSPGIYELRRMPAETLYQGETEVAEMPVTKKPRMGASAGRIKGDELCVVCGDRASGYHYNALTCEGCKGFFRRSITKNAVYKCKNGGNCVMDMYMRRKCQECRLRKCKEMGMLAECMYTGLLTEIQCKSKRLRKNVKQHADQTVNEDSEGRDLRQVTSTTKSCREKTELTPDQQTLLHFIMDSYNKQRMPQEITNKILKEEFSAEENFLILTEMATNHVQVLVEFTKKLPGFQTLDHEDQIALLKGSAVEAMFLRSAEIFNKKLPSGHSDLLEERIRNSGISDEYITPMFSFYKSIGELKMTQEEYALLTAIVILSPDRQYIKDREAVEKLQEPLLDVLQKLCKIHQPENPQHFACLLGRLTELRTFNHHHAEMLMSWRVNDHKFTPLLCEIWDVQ
Procedure: For the farnesoid X receptor (FXR) luciferase gene reporter assay, the full-length expression vector was paired with pFXRE-luc luciferase construct. The p1A1-luc construct was used in the aryl hydrocarbon receptor (AhR) assays with pRL-TK for normalization. Gal4-LXR-α/β, and Gal4-PPAR-γ constructs were used with the pGAL4 UAS-luc construct. For the VDR assay, expression vector pSG5-hVDR together with pVDRE-luc constructs was used. Firefly and Renilla luciferase activities were analyzed using a Dual reporter assay (Promega). For the nuclear receptor assays, prototype ligands were used at the following concentrations: Calcitriol for VDR (100 nM), GW3965 for LXRα and LXRβ (10 μM), 6-OCA for FXR (1 μM), fenofibrate for PPARα (10 μM), estradiol for ERα and β (10 μM), rosiglitazone for PPARγ (10 μM), 3-MC for AhR (5 μM), and TCPOBOP for mCAR (10 μM). Detailed descriptions and protocols are detailed in our recent publication. ,

Molecule | effect on wt-PXR-LBD/SRC1-VP16 two-hybrid (wild-type PXR LBD) | activation of obstructed mutated PXR LBD two-hybrid [1] | cytotoxicity/viability (HepG2 cells; HepG2, up to a concentration of 100 μM) | cytotoxicity/viability (COS-1 cells; COS-1, up to a concentration of 100 μM) | cytotoxicity/viability (HK-2 cells; HK-2, up to a concentration of 100 μM) | SULT1E1, SULT1B1, CYP7B1 and NR0B2 (SHP) gene expression (HepaRG cells; MI891 5 μM, MI1013 2 μM) | CYP3A4 gene expression (HepaRG cells; MI891 5 μM, SPA70 5 μM, MI1013 2 μM) | effect on viability (HepG2 cells; HepG2, up to 30 μM) | effect on viability (COS-1 cells; COS-1, up to 30 μM) | effect on viability (HK-2 cells; HK-2, up to 30 μM) | agonistic or antagonistic activity on FXR [2] | CYP2B6 mRNA expression (HepaRG cells; at 1 μM, no significant activation at higher concentrations) | CYP3A4 mRNA expression (HepaRG cells; alone or with rifampicin (5 μM), concentration-dependent)
N-(4-((1-(2,5-dimethoxyphenyl)-5-methyl-1H-1,2,3-triazol-4-yl)sulfonyl)phenyl)-3-(2-(2-(2-(4-(((2-(2,6-dioxopiperidin-3-yl)-1,3-dioxoisoindolin-4-yl)amino)methyl)-1H-1,2,3-triazol-1-yl)ethoxy)ethoxy)ethoxy)propenamide [Compound 36] | does not activate | does not activate | nontoxic | nontoxic | nontoxic | significantly downregulated | downregulated | – | – | – | – | – | –
NC(=O)c1cc(Cn2cc(-c3c(-c4ccc(Cl)cc4)nc4c(F)cc(F)cn34)nn2)ccc1Cl [Compound 11, 2-Chloro-5-((4-(2-(4-chlorophenyl)-6,8-difluoroimidazo[1,2-a]pyridin-3-yl)-1H-1,2,3-triazol-1-yl)methyl)-benzamide] | disrupted the wt-PXR-LBD/SRC1-VP16 interaction | Neither MI891 nor SPA70 activated the obstructed mutated PXR LBD | – | – | – | significantly downregulated | – | no effects on viability | no effects on viability | no effects on viability | no significant agonistic or antagonistic activities | slightly induced | suppressed both rifampicin-induced and basal (constitutive) CYP3A4 mRNA expression
